The values below come from US20250282735A1, “BICYCLE COMPOUNDS AS TEAD INHIBITOR” (DONG-A ST CO., LTD., priority 2022, published 2025).

What all share (format): cell-based
The subject of one experiment is MSTO-211H cells. The experiment can be described thus: Proliferation assay (EdU incorporation), MSTO-211H. The note with it: Homo sapiens, 72 h, YAP-driven MSTO-211H (LATS1 mutation), 3 days with inhibitor, 1% serum. On the procedure:
(§1) The anti-proliferative activity of TEAD inhibitors was evaluated in cells with different properties for YAP; “YAP-driven” cells (MSTO-211H, NCI-H226) in which YAP located in the nucleus and “YAP-independent” cells (OCM1, NCI-H28) where YAP located in the cytoplasm. […] TEAD inhibitors were evaluated with cell lines with these YAP profiling and mutational status.
(§2) The next day, replace it with cell starvation medium containing 1% serum. After one day of growth in the starvation medium, the cells were incubated for 3 days with TEAD inhibitors in a concentration range of 0.01-10 μM. After 3 days, EdU (Invitrogen) at a concentration of 10 µM was added to the starvation medium and incubated for an additional 24 hours. After removing the starvation medium remaining in each well, wash the wells with PBS. Cells were fixed with 4% paraformaldehyde (Electron microscopy sciences) at room temperature for 20 minutes. After removing the fix solution remaining in each well, wash the wells with PBS and the cells were permeabilized for 40 minutes by adding 0.5% triton X-100 (Sigma Aldrich). After removing the permeabilization solution remaining in each well, the EdU labeling was performed according to the instructions of the manufacturer's instructions (Click-iT™ Cell Reaction Buffer Kit, Invitrogen). After the Click reaction for EdU labeling, nuclei were stained with […] (Thermo Scientific) for total cell count analysis. After plate preparation for detection, Image acquisition was performed using the ImageXpress Micro XLS. The acquired images were analyzed using MetaXpress software (molecular devices). Through this experimental method, it was possible to confirm the inhibitory activity of TEAD inhibitors by detection EdU incorporated into proliferating cells.
(§3) IC50 for cell proliferation inhibition activity are shown in the Table 2 below and designated within the following ranges. [+++: ≤0.1 μM, ++: >0.1 μM to ≤1 μM, +: >1 μM to ≤10μ, −: >10 μM]

Experiment [1] concerns TEAD reporter-containing human breast cancer cell line MCF7. Kind of experiment: TEAD reporter (luciferase) assay. The note with it: TEAD reporter MCF7 cells, 24 hours treatment, 1% serum media. How it is done:
The TEAD reporter-containing human breast cancer cell line MCF7 (60618, BPS bioscience) was cultured according to the manufacturer's instructions. Cells were plated in 96-well white plates at a density of 30,000 per well and incubated overnight. The following day cells were treated with small molecules in 1% serum media (0.1% v/v DMSO). After 24 hours of the treatment, cell viability was evaluated by using CCK-8 reagent (CK04, Dojindo) and measuring absorbance at 450 nm. Then, the assay for luciferase activity was performed using Dual-Glo® Luciferase Assay System (Promega, E2940) following the manufacturer's instructions. Luminescence intensity was measured and the potency of the compounds was determined by IC50 value generated from non-linear regression analysis of the dose-response curves.
IC50 for luciferase activity are shown in the Table 1 below and designated within the following ranges. [+++: ≤0.1 μM, ++: >0.1 μM to ≤1 μM, +: >1 μM to ≤10 μM, −: >10 μM]

For the next experiment, the system named is NCI-H226 cells. The experiment can be described thus: Proliferation assay (EdU incorporation), NCI-H226. The settings on record: Homo sapiens, 72 h, YAP-driven NCI-H226 (NF2 mutation), 3 days with inhibitor, 1% serum. How it is done:
as §1, §2, §3

With `C=C(F)C(=O)Nc1cnc2c(c1)c(/C=C/c1ccc(Cl)cc1)cn2C` [Example 118, (E)-N-(3-(4-Chlorostyryl)-1-methyl-1H-pyrrolo[2,3-b]pyridin-5-yl)-2-fluoroacrylamide], the IC50 with MSTO-211H cells was not above 100 nM; in experiment [1], 1000 to 10000 nM.

With `C=CC(=O)Nc1ccc2c(c1)c(/C=C/C1CCC(F)(F)CC1)nn2C(C)C` [Compound 5, (E)-N-(3-(2-(4,4-Difluorocyclohexyl)vinyl)-1-isopropyl-1H-indazol-5-yl)acrylamide], the IC50 (in the experiment with MSTO-211H cells; in experiment [1]) was 100 to 1000 nM throughout.

As for `C=CC(=O)Nc1cnc2c(c1)c(/C=C/C1CCC(F)(F)CC1)nn2C(C)C` [Compound 34, (E)-N-(3-(2-(4,4-Difluorocyclohexyl)vinyl)-1-isopropyl-1H-pyrazolo[3,4-b]pyridin-5-yl)acrylamide], the IC50 with MSTO-211H cells is 100 to 1000 nM; in experiment [1], not above 100 nM.

Take `C=CC(=O)Nc1cc(F)c2c(c1)c(/C=C/C1CCC(F)(F)CC1)cn2C` [Compound 36, (E)-N-(3-(2-(4,4-Difluorocyclohexyl)vinyl)-7-fluoro-1-methyl-1H-indol-5-yl)acrylamide]: the IC50 is not above 100 nM with MSTO-211H cells and 100 to 1000 nM in experiment [1].

Consider `C=CC(=O)Nc1cnc2c(c1)c(/C=C/c1ccc(Cl)cc1)cn2C1CCCC1` [Compound 10, (E)-N-(3-(4-Chlorostyryl)-1-cyclopentyl-1H-pyrrolo[2,3-b]pyridin-5-yl)acrylamide], for which the values for the IC50 (in the experiment with MSTO-211H cells; in experiment [1]) were 100 to 1000 nM and 1000 to 10000 nM, respectively.

In the case of `C=CC(=O)Nc1cnc2c(c1)c(/C=C/c1ccc(Cl)s1)cn2C` [Example 81, (E)-N-(3-(2-(5-Chlorothiophen-2-yl)vinyl)-1-methyl-1H-pyrrolo[2,3-b]pyridin-5-yl)acrylamide], the IC50 in the experiment on MSTO-211H cells is not above 100 nM; in experiment [1], 100 to 1000 nM.

For the molecule `C=CC(=O)Nc1cnc2c(c1)c(-c1ccc(C(F)(F)F)cc1)cn2C` [Compound 51, N-(1-Methyl-3-(4-(trifluoromethyl)phenyl)-1H-pyrrolo[2,3-b]pyridin-5-yl)acrylamide], the IC50 in the experiment on MSTO-211H cells is not above 100 nM; in experiment [1], 1000 to 10000 nM.

As for `C=CC(=O)Nc1cnc2c(c1)c(-c1ccc(C3CC3)cc1)cn2C` [Example 106, N-(3-(4-Cyclopropylphenyl)-1-methyl-1H-pyrrolo[2,3-b]pyridin-5-yl)acrylamide], the IC50 in the experiment on MSTO-211H cells was not above 100 nM; in experiment [1] it was 100 to 1000 nM.

Turning to `C=CC(=O)Nc1cnc2c(c1)c(-c1cccc(/C=C/C3CCC(F)(F)CC3)c1)cn2C` [Example 85, (E)-N-(3-(3-(2-(4,4-Difluorocyclohexyl)vinyl)phenyl)-1-methyl-1H-pyrrolo[2,3-b]pyridin-5-yl)acrylamide], the IC50 (with MSTO-211H cells; in experiment [1]) was 100 to 1000 nM each time.

Regarding `C=CC(=O)Nc1cnc2c(c1)c(/C=C/C1CCC(F)(F)CC1)cn2C(F)F` [Example 130, (E)-N-(3-(2-(4,4-Difluorocyclohexyl)vinyl)-1-(difluoromethyl)-1H-pyrrolo[2,3-b]pyridin-5-yl)acrylamide], the IC50 (with MSTO-211H cells; in experiment [1]) was 100 to 1000 nM throughout.

For `[2H]C([2H])([2H])n1cc(/C=C/c2ccc(Cl)cc2)c2cc(NC(=O)C=C)cnc21` [Example 121, (E)-N-(3-(4-Chlorostyryl)-1-(methyl-d3)-1H-pyrrolo[2,3-b]pyridin-5-yl)acrylamide], the values for the IC50 (in the experiment on MSTO-211H cells; in experiment [1]) were not above 100 nM and 100 to 1000 nM, respectively.

For `C=CC(=O)Nc1cnc2c(c1)c(/C=C/c1ccc(Cl)cc1)nn2C(C)C` [Compound 35, (E)-N-(3-(4-Chlorostyryl)-1-isopropyl-1H-pyrazolo[3,4-b]pyridin-5-yl)acrylamide], the IC50 (in the experiment with MSTO-211H cells; in experiment [1]) was 100 to 1000 nM each time.

Take `C=CC(=O)Nc1cnc2c(c1)c(/C=C/c1ccc(F)cc1)cn2C` [Compound 47, (E)-N-(3-(4-Fluorostyryl)-1-methyl-1H-pyrrolo[2,3-b]pyridin-5-yl)acrylamide]: the IC50 in the experiment on MSTO-211H cells and with NCI-H226 cells was not above 100 nM in each case.

With `C=CC(=O)Nc1cnc2c(c1)c(CCC1CCC(F)(F)CC1)cn2C` [Example 64, N-(3-(2-(4,4-Difluorocyclohexyl)ethyl)-1-methyl-1H-pyrrolo[2,3-b]pyridin-5-yl)acrylamide], the IC50 (with MSTO-211H cells; in experiment [1]) was not above 100 nM each time.

For the molecule `C=CC(=O)Nc1cnc2c(c1)c(/C=C/C1CCC(F)(F)CC1)nn2CC` [Compound 32, (E)-N-(3-(2-(4,4-Difluorocyclohexyl)vinyl)-1-ethyl-1H-pyrazolo[3,4-b]pyridin-5-yl)acrylamide], the IC50 was 100 to 1000 nM in the experiment on MSTO-211H cells and not above 100 nM in experiment [1].

Take `C=CC(=O)Nc1cnc2c(c1)c(-c1ccc(Cl)cc1)cn2C(F)F` [Example 132, N-(3-(4-Chlorophenyl)-1-(difluoromethyl)-1H-pyrrolo[2,3-b]pyridin-5-yl)acrylamide]: the IC50 in the experiment on MSTO-211H cells is 100 to 1000 nM; in experiment [1], 1000 to 10000 nM.

On to `C=CC(=O)Nc1cc(F)c2c(c1)c(/C=C/c1ccc(Cl)cc1)cn2C` [Compound 37, (E)-N-(3-(4-Chlorostyryl)-7-fluoro-1-methyl-1H-indol-5-yl)acrylamide], for which the IC50 is not above 100 nM with MSTO-211H cells and 100 to 1000 nM in experiment [1].

Take `Cn1cc(/C=C/c2ccc(Cl)cc2)c2cc(NC(=O)CCl)cnc21` [Example 70, (E)-2-Chloro-N-(3-(4-chlorostyryl)-1-methyl-1H-pyrrolo[2,3-b]pyridin-5-yl) acetamide]: the IC50 (in the experiment on MSTO-211H cells; in experiment [1]) was 1000 to 10000 nM in each case.

On to `C=CC(=O)Nc1cnc2c(c1)c(-c1ccc3ccccc3c1)cn2C` [Example 107, N-(1-Methyl-3-(naphthalen-2-yl)-1H-pyrrolo[2,3-b]pyridin-5-yl)acrylamide], for which the IC50 (in the experiment on MSTO-211H cells; in experiment [1]) was not above 100 nM each time.

Take `C=CC(=O)Nc1ccc2c(c1)c(/C=C/c1ccc(Cl)cc1)cn2CC` [Compound 26, (E)-N-(3-(4-Chlorostyryl)-1-ethyl-1H-indol-5-yl)acrylamide]: the IC50 (with MSTO-211H cells; in experiment [1]) was 100 to 1000 nM throughout.

Regarding `C=CC(=O)Nc1cnc2c(c1)c(/C=C/c1ccc(Cl)cc1)nn2CC` [Compound 33, (E)-N-(3-(4-Chlorostyryl)-1-ethyl-1H-pyrazolo[3,4-b]pyridin-5-yl)acrylamide], the IC50 was not above 100 nM in the experiment with MSTO-211H cells and 1000 to 10000 nM in experiment [1].

With `C=CC(=O)Nc1ccc2c(c1)c(/C=C/C1CCC(F)(F)CC1)cn2C(C)C` [Compound 27, (E)-N-(3-(2-(4,4-Difluorocyclohexyl)vinyl)-1-isopropyl-1H-indol-5-yl)acrylamide], the IC50 (with MSTO-211H cells; in experiment [1]) was 100 to 1000 nM each time.

As for `C=CC(=O)Nc1cnc2c(c1)c(/C=C/c1ccc(Cl)cc1)cn2C(F)F` [Example 128, (E)-N-(3-(4-Chlorostyryl)-1-(difluoromethyl)-1H-pyrrolo[2,3-b]pyridin-5-yl)acrylamide], the concentration for half-maximal inhibition (IC50) in the experiment with MSTO-211H cells and in the experiment on NCI-H226 cells was 100 to 1000 nM throughout.

In the case of `C=CC(=O)Nc1cnc2c(c1)c(/C=C/C1CCC(F)(F)CC1)cn2CC` [Compound 17, (E)-N-(3-(2-(4,4-Difluorocyclohexyl)vinyl)-1-ethyl-1H-pyrrolo[2,3-b]pyridin-5-yl)acrylamide], the IC50 was 100 to 1000 nM in the experiment on MSTO-211H cells and not above 100 nM in the experiment with NCI-H226 cells.

As to `C=CC(=O)Nc1cnc2c(c1)c(-c1ccc(CCC)cc1)cn2C` [Example 100, N-(1-Methyl-3-(4-propylphenyl)-1H-pyrrolo[2,3-b]pyridin-5-yl)acrylamide], the IC50 in the experiment on MSTO-211H cells is not above 100 nM.

`C=CC(=O)Nc1ccc2c(c1)c(C1=CCC(F)(F)CC1)cn2C` [Compound 23, N-(3-(4,4-Difluorocyclohex-1-en-1-yl)-1-methyl-1H-indol-5-yl)acrylamide]: the figures for the IC50 (with MSTO-211H cells; in experiment [1]) were 100 to 1000 nM and not above 100 nM, respectively.

Regarding `C=CC(=O)Nc1cnc2c(c1)c(-c1ccc(SCC)cc1)cn2C` [Example 111, N-(3-(4-(Ethylthio)phenyl)-1-methyl-1H-pyrrolo[2,3-b]pyridin-5-yl)acrylamide], the IC50 in the experiment on MSTO-211H cells is not above 100 nM; in experiment [1] it was 100 to 1000 nM.

As for `C=CC(=O)Nc1ccc2c(c1)c(C1CCC(C)(C)CC1)cn2C` [Example 122, N-(3-(4,4-dimethylcyclohexyl)-1-methyl-1H-indol-5-yl)acrylamide], the IC50 in the experiment with MSTO-211H cells was 100 to 1000 nM; in experiment [1] it was not above 100 nM.

As a reminder, the IC50 is the concentration that gives 50% inhibition. Low values mean greater potency in that assay, high ones weaker potency in that assay.
